According to the NIST ThermoML archive (doi:10.1021/je034066w):
Numbers after ± are expanded uncertainties.

Settings: Liquid

SMILES: CC(C)O [propan-2-ol]
- Critical pressure (Direct measurement): 4755 ± 48 kPa
- Critical temperature (Visual observation in a stirred cell): 508.15 ± 0.12 K
